# Measured values published in ChEMBL document CHEMBL3120061, “Novel spiroketal pyrrolidine GSK2336805 potently inhibits key hepatitis C virus genotype 1b mutants: from lead to clinical compound” (J Med Chem, 2014).
# Experiments:
# [1] = Half life in dog hepatocytes; type: ADME, cell-based, Canis lupus familiaris, Hepatocyte
# Cytochrome P450 3A4 = Cytochrome P450 3A4 (Homo sapiens, UniProt P08684); experiment: Inhibition of CYP3A4 (unknown origin); type: ADME
# Albumin = Albumin (Homo sapiens, UniProt P02768); experiment: Binding affinity to human serum albumin; type: ADME; conditions: isolated protein
# Hepatitis C virus [2] = experiment: Antiviral activity against Hepatitis C virus genotype 1b in Huh-luc/neo-ET replicon cells assessed as log10 reduction of HCV RNA at 3 to 10 times EC90 after 5 days by RNA reduction assay; type: functional, Hepacivirus hominis
# [3] = Half life in human hepatocytes; type: ADME, cell-based, Hepatocyte
# Hepatitis C virus [4] = experiment: Ratio of EC50 for Hepatitis C virus genotype 1b harboring NS5A L31V mutant gene to EC50 for Hepatitis C virus genotype 1b harboring wild type NS5A in Huh-luc/neo-ET replicon cells by replicon-based luciferase assay; type: functional, Hepacivirus hominis
# Hepatitis C virus [5] = experiment: Antiviral activity against Hepatitis C virus genotype 1 infected in patient assessed as decrease in log10 HCV RNA copies/ml at 120 mg administered as single dose; type: functional, Hepacivirus hominis
# Cytochrome P450 1A2 = biological target: T1, Cytochrome P450 1A2 (Homo sapiens, UniProt P05177); experiment: Inhibition of CYP1A2 (unknown origin); type: ADME
# T1 sequence (P05177 whole entry): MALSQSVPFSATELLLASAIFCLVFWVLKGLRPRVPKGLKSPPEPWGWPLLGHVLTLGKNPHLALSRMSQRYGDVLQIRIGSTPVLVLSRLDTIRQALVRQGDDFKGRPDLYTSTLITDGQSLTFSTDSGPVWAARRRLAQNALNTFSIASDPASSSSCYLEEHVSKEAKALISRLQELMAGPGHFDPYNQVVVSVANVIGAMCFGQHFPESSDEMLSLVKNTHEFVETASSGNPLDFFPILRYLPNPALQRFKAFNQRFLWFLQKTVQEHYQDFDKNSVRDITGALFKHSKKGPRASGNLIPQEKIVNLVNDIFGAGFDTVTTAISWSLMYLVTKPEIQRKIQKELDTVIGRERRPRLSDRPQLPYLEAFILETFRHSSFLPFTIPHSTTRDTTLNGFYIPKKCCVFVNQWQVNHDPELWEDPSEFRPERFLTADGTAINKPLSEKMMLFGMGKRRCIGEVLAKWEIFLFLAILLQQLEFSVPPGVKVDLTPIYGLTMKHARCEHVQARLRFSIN
# [6] = Oral bioavailability in beagle dog; type: ADME, organism-based, Canis lupus familiaris; conditions: in vivo
# Hepatitis C virus [7] = experiment: Ratio of EC50 for Hepatitis C virus genotype 1b harboring NS5A Y93H mutant gene to EC50 for Hepatitis C virus genotype 1b harboring wild type NS5A in Huh-luc/neo-ET replicon cells by replicon-based luciferase assay; type: functional, Hepacivirus hominis
# [8] = Half life in cynomolgus monkey hepatocytes; type: ADME, cell-based, Macaca fascicularis, Hepatocyte
# [9] = In vivo clearance in cynomolgus monkey relative to hepatic blood flow; type: ADME, organism-based, Macaca fascicularis, Liver; conditions: read-out: CLH
# [10] = Oral bioavailability in cynomolgus monkey; type: ADME, organism-based, Macaca fascicularis; conditions: in vivo
# Hepatitis C virus [11] = experiment: Antiviral activity against Hepatitis C virus genotype 1b in Huh-luc/neo-ET replicon cells assessed as log10 reduction of HCV RNA at 3 times EC90 after 20 days by RNA reduction assay; type: functional, Hepacivirus hominis
# [12] = In vivo clearance in CD rat relative to hepatic blood flow; type: ADME, organism-based, Liver; conditions: read-out: CLH
# [13] = In vivo clearance in beagle dog relative to hepatic blood flow; type: ADME, organism-based, Canis lupus familiaris, Liver; conditions: read-out: CLH
# Hepatitis C virus [14] = experiment: Antiviral activity against Hepatitis C virus genotype 1a in Huh-luc/neo-ET replicon cells after 48 hrs by replicon-based luciferase assay; type: functional, organism-based, Hepacivirus hominis; conditions: subtype 1a
# Hepatitis C virus [15] = experiment: Antiviral activity against Hepatitis C virus genotype 1b harboring NS5A L28V mutant gene in Huh-luc/neo-ET replicon cells after 48 hrs by transient replicon mutant-based luciferase assay; type: functional, organism-based, Hepacivirus hominis
# [16] = Oral bioavailability in CD rat; type: ADME, organism-based; conditions: in vivo
# Hepatitis C virus [17] = experiment: Antiviral activity against Hepatitis C virus genotype 1b in Huh-luc/neo-ET replicon cells after 48 hrs by replicon-based luciferase assay; type: functional, organism-based, Hepacivirus hominis
# Hepatitis C virus [18] = experiment: Antiviral activity against Hepatitis C virus genotype 1b in Huh-luc/neo-ET replicon cells assessed as log10 reduction of HCV RNA at 10 times EC90 after 20 days by RNA reduction assay; type: functional, Hepacivirus hominis
# Cytochrome P450 2C19 = Cytochrome P450 2C19 (Homo sapiens, UniProt P33261); experiment: Inhibition of CYP2C19 (unknown origin); type: ADME
# [19] = Binding affinity to human alpha1 AGP; type: ADME; conditions: isolated protein
# Hepatitis C virus [20] = experiment: Antiviral activity against Hepatitis C virus genotype 1b harboring NS5A L31V mutant gene in Huh-luc/neo-ET replicon cells after 48 hrs by transient replicon mutant-based luciferase assay; type: functional, organism-based, Hepacivirus hominis
# Cytochrome P450 2D6 = Cytochrome P450 2D6 (Homo sapiens, UniProt P10635); experiment: Inhibition of CYP2D6 (unknown origin); type: ADME
# Cytochrome P450 2C9 = Cytochrome P450 2C9 (Homo sapiens, UniProt P11712); experiment: Inhibition of CYP2C9 (unknown origin); type: ADME
# Hepatitis C virus [21] = experiment: Antiviral activity against Hepatitis C virus genotype 1b harboring NS5A Y93H mutant gene in Huh-luc/neo-ET replicon cells after 48 hrs by transient replicon mutant-based luciferase assay; type: functional, organism-based, Hepacivirus hominis
# [22] = Half life in rat hepatocytes; type: ADME, cell-based, Hepatocyte
# [23] = Cytotoxicity against human HuhET cells infected with Hepatitis C virus up to 40 uM after 48 hrs by WST assay; type: cell-based
# Hepatitis C virus [24] = experiment: Antiviral activity against Hepatitis C virus genotype 1 infected in patient assessed as decrease in log10 HCV RNA copies/ml at 1 mg administered as single dose; type: functional, Hepacivirus hominis
# Chain of Cytochrome P450 2C9 (P11712 whole entry): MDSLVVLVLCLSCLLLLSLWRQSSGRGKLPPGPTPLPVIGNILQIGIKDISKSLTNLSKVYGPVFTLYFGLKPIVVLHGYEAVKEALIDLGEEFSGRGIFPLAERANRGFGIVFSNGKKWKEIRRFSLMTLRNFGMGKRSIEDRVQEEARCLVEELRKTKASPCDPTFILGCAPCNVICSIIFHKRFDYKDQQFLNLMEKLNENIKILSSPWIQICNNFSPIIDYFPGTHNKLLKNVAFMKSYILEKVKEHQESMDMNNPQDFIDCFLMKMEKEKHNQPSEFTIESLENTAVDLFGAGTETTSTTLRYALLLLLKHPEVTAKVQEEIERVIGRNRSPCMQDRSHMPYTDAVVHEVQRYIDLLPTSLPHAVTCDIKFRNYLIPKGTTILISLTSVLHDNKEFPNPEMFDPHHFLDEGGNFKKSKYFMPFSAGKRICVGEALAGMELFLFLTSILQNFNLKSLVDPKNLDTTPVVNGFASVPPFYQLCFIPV
# Chain of Cytochrome P450 2C19 (P33261 whole entry): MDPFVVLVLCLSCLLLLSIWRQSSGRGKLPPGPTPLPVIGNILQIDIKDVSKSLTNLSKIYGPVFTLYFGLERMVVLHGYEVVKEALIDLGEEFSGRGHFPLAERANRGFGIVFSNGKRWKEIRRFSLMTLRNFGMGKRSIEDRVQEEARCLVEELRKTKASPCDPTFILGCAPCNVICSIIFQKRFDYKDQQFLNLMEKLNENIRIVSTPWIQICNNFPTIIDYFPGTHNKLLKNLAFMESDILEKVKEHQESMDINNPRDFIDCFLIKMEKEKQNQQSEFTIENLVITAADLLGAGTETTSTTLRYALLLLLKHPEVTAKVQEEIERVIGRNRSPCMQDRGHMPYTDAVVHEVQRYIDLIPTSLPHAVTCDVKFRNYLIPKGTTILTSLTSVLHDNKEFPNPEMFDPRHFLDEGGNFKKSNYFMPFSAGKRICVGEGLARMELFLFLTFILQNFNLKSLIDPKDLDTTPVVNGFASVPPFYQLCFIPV
# Chain of Cytochrome P450 3A4 (P08684 whole entry): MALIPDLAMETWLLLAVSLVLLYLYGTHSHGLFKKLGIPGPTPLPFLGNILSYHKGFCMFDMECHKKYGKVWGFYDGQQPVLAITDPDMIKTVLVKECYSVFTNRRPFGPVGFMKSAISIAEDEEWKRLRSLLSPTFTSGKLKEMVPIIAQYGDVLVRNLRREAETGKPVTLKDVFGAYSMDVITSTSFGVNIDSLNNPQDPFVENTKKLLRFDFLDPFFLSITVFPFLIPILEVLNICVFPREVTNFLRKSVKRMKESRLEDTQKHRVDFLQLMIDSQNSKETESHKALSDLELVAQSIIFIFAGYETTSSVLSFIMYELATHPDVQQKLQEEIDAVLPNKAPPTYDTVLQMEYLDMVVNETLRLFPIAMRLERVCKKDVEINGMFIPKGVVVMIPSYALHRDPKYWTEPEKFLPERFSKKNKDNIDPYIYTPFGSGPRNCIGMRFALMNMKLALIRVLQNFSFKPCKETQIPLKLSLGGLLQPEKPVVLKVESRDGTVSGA
# Chain of Albumin (P02768 whole entry): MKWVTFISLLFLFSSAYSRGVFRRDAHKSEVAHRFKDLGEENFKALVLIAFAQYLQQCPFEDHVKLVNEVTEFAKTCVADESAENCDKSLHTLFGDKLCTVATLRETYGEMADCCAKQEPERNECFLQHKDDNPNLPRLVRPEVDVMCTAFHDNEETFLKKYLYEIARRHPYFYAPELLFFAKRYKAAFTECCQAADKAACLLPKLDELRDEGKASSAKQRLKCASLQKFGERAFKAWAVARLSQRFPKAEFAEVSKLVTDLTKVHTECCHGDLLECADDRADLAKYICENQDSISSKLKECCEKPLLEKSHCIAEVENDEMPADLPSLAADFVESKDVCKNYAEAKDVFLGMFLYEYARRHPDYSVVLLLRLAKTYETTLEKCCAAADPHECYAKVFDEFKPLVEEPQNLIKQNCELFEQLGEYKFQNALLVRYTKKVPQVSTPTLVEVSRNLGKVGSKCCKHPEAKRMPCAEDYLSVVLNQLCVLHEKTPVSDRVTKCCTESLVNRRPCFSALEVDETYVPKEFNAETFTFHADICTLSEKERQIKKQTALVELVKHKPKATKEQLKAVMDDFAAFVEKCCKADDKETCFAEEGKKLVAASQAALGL
# Chain of Cytochrome P450 2D6 (P10635 whole entry): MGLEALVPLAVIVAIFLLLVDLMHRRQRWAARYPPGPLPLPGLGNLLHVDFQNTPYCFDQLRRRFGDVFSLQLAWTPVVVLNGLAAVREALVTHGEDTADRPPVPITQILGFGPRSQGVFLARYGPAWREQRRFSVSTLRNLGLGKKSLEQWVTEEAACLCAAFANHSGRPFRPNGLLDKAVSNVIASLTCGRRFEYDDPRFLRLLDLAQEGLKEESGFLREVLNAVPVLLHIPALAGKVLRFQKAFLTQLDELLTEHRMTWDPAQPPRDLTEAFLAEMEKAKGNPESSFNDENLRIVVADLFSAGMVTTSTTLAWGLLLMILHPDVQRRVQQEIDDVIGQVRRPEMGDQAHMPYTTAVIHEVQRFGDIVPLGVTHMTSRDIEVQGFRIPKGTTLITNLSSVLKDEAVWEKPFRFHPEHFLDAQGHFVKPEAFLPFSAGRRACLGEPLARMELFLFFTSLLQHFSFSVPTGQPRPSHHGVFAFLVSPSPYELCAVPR
smiles,measurement,setting,value
COC(=O)N[C@H](C(=O)N1CCC[C@H]1c1ncc(-c2ccc(-c3ccc(-c4cnc([C@@H]5CC6(CN5C(=O)[C@@H](NC(=O)OC)C(C)C)OCCO6)[nH]4)cc3)cc2)[nH]1)C(C)C,half-life,[1],≥ 6 h
same,IC50,Cytochrome P450 3A4,> 33000 nM
same,Activity,Albumin,94%
same,FC,Hepatitis C virus [2],2
same,half-life,[3],≥ 6 h
same,Ratio EC50,Hepatitis C virus [4],<=5
same,FC,Hepatitis C virus [5],2.95
same,IC50,Cytochrome P450 1A2,> 33000 nM
same,bioavailability,[6],51%
same,Ratio EC50,Hepatitis C virus [7],3.2
same,half-life,[8],≥ 6 h
same,clearance,[9],9 mL/min/kg
same,bioavailability,[10],13%
same,FC,Hepatitis C virus [11],3
same,clearance,[12],60 mL/min/kg
same,clearance,[13],8 mL/min/kg
same,EC50,Hepatitis C virus [14],0.0398 nM
same,EC50,Hepatitis C virus [15],0.00316 nM
same,bioavailability,[16],13%
same,EC50,Hepatitis C virus [17],0.00794 nM
same,FC,Hepatitis C virus [18],4
same,IC50,Cytochrome P450 2C19,> 33000 nM
same,Activity,[19],86%
same,EC50,Hepatitis C virus [20],0.0251 nM
same,IC50,Cytochrome P450 2D6,> 33000 nM
same,IC50,Cytochrome P450 2C9,> 33000 nM
same,EC50,Hepatitis C virus [21],0.0251 nM
same,half-life,[22],2.67 h
same,Activity,[23],Non-toxic
same,FC,Hepatitis C virus [24],0.996
COC(=O)N[C@H](C(=O)N1CC2(CCOCC2)C[C@H]1c1ncc(-c2ccc(-c3ccc(-c4cnc([C@@H]5CC6(CCOCC6)CN5C(=O)[C@@H](NC(=O)OC)C(C)C)[nH]4)cc3)cc2)[nH]1)C(C)C,Ratio EC50,Hepatitis C virus [4],<=5
same,Ratio EC50,Hepatitis C virus [7],>=30
same,EC50,Hepatitis C virus [14],0.02 nM
same,EC50,Hepatitis C virus [15],0.00631 nM
same,EC50,Hepatitis C virus [17],0.0126 nM
same,EC50,Hepatitis C virus [20],0.02 nM
same,EC50,Hepatitis C virus [21],0.126 nM
COC(=O)N[C@H](C(=O)N1CC2(C[C@H]1c1ncc(-c3ccc(-c4ccc(-c5cnc([C@@H]6CC7(CN6C(=O)[C@@H](NC(=O)OC)C(C)C)OCCO7)[nH]5)cc4)cc3)[nH]1)OCCO2)C(C)C,Ratio EC50,Hepatitis C virus [4],<=5
same,clearance,[12],58 mL/min/kg
same,EC50,Hepatitis C virus [14],0.0501 nM
same,EC50,Hepatitis C virus [15],0.0126 nM
same,bioavailability,[16],9%
same,EC50,Hepatitis C virus [17],0.01 nM
same,EC50,Hepatitis C virus [20],0.0251 nM
same,EC50,Hepatitis C virus [21],0.0126 nM
COC(=O)N[C@H](C(=O)N1CCC[C@H]1c1ncc(-c2ccc(-c3ccc(-c4cnc([C@@H]5CC6(CCC(F)(F)CC6)CN5C(=O)[C@@H](NC(=O)OC)C(C)C)[nH]4)cc3)cc2)[nH]1)C(C)C,Ratio EC50,Hepatitis C virus [4],>=25
same,Ratio EC50,Hepatitis C virus [7],>=30
same,EC50,Hepatitis C virus [14],0.0398 nM
same,EC50,Hepatitis C virus [15],0.00158 nM
same,EC50,Hepatitis C virus [17],0.00251 nM
same,EC50,Hepatitis C virus [20],0.2 nM
same,EC50,Hepatitis C virus [21],1 nM
COC(=O)N[C@H](C(=O)N1CC2(CNC2)CC1c1ncc(-c2ccc(-c3ccc(-c4cnc([C@@H]5CCCN5C(=O)[C@@H](NC(=O)OC)C(C)C)[nH]4)cc3)cc2)[nH]1)C(C)C (mixture of isomers),EC50,Hepatitis C virus [14],3.16 nM
same,EC50,Hepatitis C virus [17],0.126 nM
COC(=O)N[C@H](C(=O)N1CC2(CC1c1ncc(-c3ccc(-c4ccc(-c5cnc([C@@H]6CCCN6C(=O)[C@@H](NC(=O)OC)C(C)C)[nH]5)cc4)cc3)[nH]1)CN(C(C)=O)C2)C(C)C (mixture of isomers),EC50,Hepatitis C virus [14],1.26 nM
same,EC50,Hepatitis C virus [17],0.158 nM
CNC(=O)N1CC2(CC(c3ncc(-c4ccc(-c5ccc(-c6cnc([C@@H]7CCCN7C(=O)[C@@H](NC(=O)OC)C(C)C)[nH]6)cc5)cc4)[nH]3)N(C(=O)[C@@H](NC(=O)OC)C(C)C)C2)C1 (mixture of isomers),EC50,Hepatitis C virus [14],6.31 nM
same,EC50,Hepatitis C virus [17],0.251 nM
COC(=O)N[C@H](C(=O)N1CC2(CCNCC2)CC1c1ncc(-c2ccc(-c3ccc(-c4cnc([C@@H]5CCCN5C(=O)[C@@H](NC(=O)OC)C(C)C)[nH]4)cc3)cc2)[nH]1)C(C)C (mixture of isomers),EC50,Hepatitis C virus [14],> 31.6 nM
same,EC50,Hepatitis C virus [17],1.58 nM
COC(=O)N[C@H](C(=O)N1CC2(CCN(C(C)=O)CC2)CC1c1ncc(-c2ccc(-c3ccc(-c4cnc([C@@H]5CCCN5C(=O)[C@@H](NC(=O)OC)C(C)C)[nH]4)cc3)cc2)[nH]1)C(C)C (mixture of isomers),EC50,Hepatitis C virus [14],10 nM
same,EC50,Hepatitis C virus [17],0.2 nM
COC(=O)N[C@H](C(=O)N1CCC[C@H]1c1ncc(-c2ccc(-c3ccc(-c4cnc([C@@H]5CCCN5C(=O)[C@@H](NC(=O)OC)C(C)C)[nH]4)cc3)cc2)[nH]1)C(C)C [DACLATASVIR],FC,Hepatitis C virus [2],2
same,Ratio EC50,Hepatitis C virus [4],>=25
same,Ratio EC50,Hepatitis C virus [7],>=30
same,FC,Hepatitis C virus [11],2
same,EC50,Hepatitis C virus [14],0.0398 nM
same,EC50,Hepatitis C virus [15],0.00398 nM
same,EC50,Hepatitis C virus [17],0.01 nM
same,FC,Hepatitis C virus [18],3
same,EC50,Hepatitis C virus [20],0.126 nM
same,EC50,Hepatitis C virus [21],0.316 nM
